Data from patent US20040023972A1, “Use of substituted imidazo[1,2-a]-pyridin-, -pyrimidin-and-pyrazin-3-yl-amine derivatives in the preparation of medicaments for inhibiting NOS” (Gruenenthal GmbH, priority 2000, published 2004).

Target: T1, NO synthase (Rattus norvegicus, UniProt P29476)
T1 construct: the supernatant was then removed by decantation and frozen in portions at −80° C; from tissue; host or cells: rat cerebellum, 20,000 g supernatant of homogenate
Experiment: HTS-NOS assay (NOS assay): conversion of radioactive arginine, cation-exchanger filter plate
Format: biochemical
Settings: for inhibition at 10 µM: read-out: HTS-NOS assay: % inhibition (10 μM)
Description: This assay enables the percentage inhibition of NO synthase by an active ingredient to be determined by measuring the NOS activity under the action of the active ingredient. NO synthase is mixed together with radioactively labelled arginine and the active ingredient under suitable conditions. After terminating the NO-forming reaction at a given time, the amount of unconverted arginine is determined directly or indirectly. A comparison of that amount with the amount of arginine that remains in a mixture of NOS and arginine without the addition of active ingredient and under otherwise identical conditions gives the % inhibition of NO synthase by the tested active ingredient. This assay can be carried out as follows:
(a) incubation of NO synthase with labelled arginine as substrate in a reaction vessel,
(b) separation of the labelled arginine from the labelled citrulline optionally formed as a product of the enzymatic reaction, at a time at which the citrulline concentration is increasing,
(c) measurement of the amount of arginine remaining in each case.
Separation is carried out over a filter plate membrane.
This NOS assay is suitable especially for “high throughput screening” (HTS) on microtitre plates (MTP).
In this HTS-NOS assay, radioactive arginine is used as substrate. The assay volume can be chosen in the range from 25 μl to 250 μl, according to the type of microtitre plate (MTP). Depending on the source of the enzyme used, co-factors and co-enzymes are added. Incubation of the batches on this microtitre plate (assay MTP) according to step (a) is carried out at room temperature and is for 5 to 60 minutes according to the enzyme activity used (units). At the end of the incubation (step (a)), the plate is placed into a cell harvester which is equipped with a MTP having a cation-exchanger membrane as the filter base (filter MTP). All batches of the assay MTP are transferred to the filter MTP and filtered off with suction over a cation-exchanger filter plate, a paper filter charged with phosphate groups. The filter MTP is then washed with buffer or water. By means of this procedure, the arginine substrate that remains is bound to the cation exchanger, while the enzymatically formed radioactive citrulline is washed out quantitatively. After drying the filter MTP and adding scintillation liquid, the bound arginine can be counted using a scintillation counter. An uninhibited NOS reaction is reflected in low radioactivity. An inhibited enzyme reaction means that the radioactive arginine has not been converted. This means that a high level of radioactivity is found on the filter.
Rat cerebella were used as the starting tissue. The animals were anaesthetized and sacrificed, the brain tissue, the cerebellum, was removed by dissection, 1 ml of enzyme preparation buffer was added per rat cerebellum (4° C.), and disintegration was carried out using a Polytron homogeniser for 1 minute at 6000 rpm, followed by centrifugation for 15 minutes at 4° C. and 20,000 g; the supernatant was then removed by decantation and frozen in portions at −80° C. (the precipitate was discarded).
96-well MTP having a well capacity of <250 μl were used.
Pipetting sequence: see Table 1.
When the pipetting operation was complete, a cover was placed on the MTP (assay MTP), and incubation was at 25° C. (room temperature (RT)) for from 5 to 60 minutes, according to the amount and activity of the enzyme used.
The contents of the assay MTP were then transferred with the aid of a 96-well cell harvester to a 96-well cation exchanger MTP (filter MTP) and filtered off with suction. This was followed by washing once with […] of H2O (from a bath).
The plate was then dried for 1 hour at 60° C. in a drying cabinet. The underside of the filter MTP was then accurately sealed from beneath with a “back seal”. 35 μl of scintillation fluid per well were then added by means of a pipette. The upper side of the plate was also sealed with a “top seal”. […]

Row | SMILES | inhibition at 10 µM [%] | HTS-NOS assay: % inhibition (10 μM) [%]
1 | O=[N+]([O-])c1cccc2cn[nH]c12 [7-nitroindazole, reference compound] | 50 | 
2 | Cc1ccn2c(NC(C)(C)C)c(-c3cccnc3)nc2c1 [Example 1, Tert-butyl-(7-methyl-2-pyridin-3-yl-imidazo[1,2-a]pyridin-3-yl)-amine] | 63 | 
3 | Cc1cc(C)n2c(NC3CCCCC3)c(-c3ccncc3)nc2c1 [Example 2, Cyclohexyl-(5,7-dimethyl-2-pyridin-4-yl-imidazo[1,2-a]pyridin-3-yl)-amine] | 62 | 
4 | Cc1cc(C)n2c(NC(C)(C)CC(C)(C)C)c(-c3ccncc3)nc2c1 [Example 3, (5,7-Dimethyl-2-pyridin-4-yl-imidazo[1,2-a]-pyridin-3-yl)-(1,1,3,3-tetramethyl-butyl)-amine] | 60 | 
5 | C#[N+]CCCCCCNc1c(-c2ccc[nH]2)nc2cc(C)cc(C)n12 [Example 4, {6-[5,7-Dimethyl-2-(1H-pyrrol-2-yl)-imidazo[1,2-a]pyridin-3-ylamino]-hexyl}-methylidyne-ammonium] |  | 54
6 | COc1cccc(-c2nc3cc(C)cc(C)n3c2NC(C)(C)C)c1OC [Example 5, Tert-butyl-[2-(2,3-dimethoxy-phenyl)-5,7-dimethyl-imidazo[1,2-a]pyridin-3-yl]-amine] | 61 | 
7 | COc1ccc(-c2nc3cc(C)ccn3c2NC(C)(C)CC(C)(C)C)cc1OC [Example 6, [2-(3,4-Dimethoxy-phenyl)-7-methyl-imidazo[1,2-a]pyridin-3-yl]-(1,1,3,3-tetramethyl-butyl)-amine] | 53 | 
8 | Cc1ccn2c(NC3CCCCC3)c(-c3ccncc3)nc2c1 [Example 7, Cyclohexyl-(7-methyl-2-pyridin-4-yl-imidazo[1,2-a]pyridin-3-yl)-amine] | 65 | 
9 | Cc1cc(C)n2c(NC(C)(C)CC(C)(C)C)c(-c3ccco3)nc2c1 [Example 8, (2-Furan-2-yl-5,7-dimethyl-imidazo[1,2-a]-pyridin-3-yl)-(1,1,3,3-tetramethyl-butyl)-amine] | 52 | 
10 | Cc1cc(C)n2c(NC(C)(C)CC(C)(C)C)c(C)nc2c1 [Example 9, (1,1,3,3-Tetramethyl-butyl)-(2,5,7-trimethyl-imidazol[1,2-a]pyridin-3-yl)-amine] |  | 59
11 | Cc1ccn2c(NC3CCCCC3)c(-c3ccccc3C)nc2c1 [Example 10, Cyclohexyl-(7-methyl-2-o-tolyl-imidazol[1,2-a]pyridin-3-yl)-amine] |  | 54
12 | Cc1ccn2c(NC3CCCCC3)c(-c3cccs3)nc2c1 [Example 11, Cyclohexyl-(7-methyl-2-thiophen-2-yl-imidazo[1,2-a]pyridin-3-yl)-amine] | 60 | 
13 | Cc1cc(C)n2c(NC(C)(C)CC(C)(C)C)c(-c3cccnc3)nc2c1 [Example 12, (5,7-Dimethyl-2-pyridin-3-yl-imidazo[1,2-a]-pyridin-3-yl)-(1,1,3,3-tetramethyl-butyl)-amine] | 61 | 
14 | C#[N+]CCCCCCNc1c(-c2cccnc2)nc2cc(C)ccn12 [Example 19, Methylidyne-[6-(7-methyl-2-pyridin-3-yl-imidazo[1,2-a]pyridin-3-ylamino)-hexyl]-ammonium] |  | 53

More lines, now with the values ahead:

Row | inhibition at 10 µM [%] | HTS-NOS assay: % inhibition (10 μM) [%] | SMILES
15 |  | 57 | Cc1ccn2c(NC3CCCCC3)c(-c3ccccc3C(F)(F)F)nc2c1 [Example 13, Cyclohexyl-[7-methyl-2-(2-trifluorO-methyl-phenyl)-imidazo[1,2-a]pyridin-3-yl]-amine]
16 | 67 |  | Cc1cc(C)n2c(NC(C)(C)C)c(C)nc2c1 [Example 14, Tert-butyl-(2,5,7-trimethyl-imidazo[1,2-a]-pyridin-3-yl)-amine]
17 | 59 |  | Cc1ccn2c(NC(C)(C)CC(C)(C)C)c(-c3cccnc3)nc2c1 [Example 15, (7-Methyl-2-pyridin-3-yl-imidazo[1,2-a]-pyridin-3-yl)-(1,1,3,3-tetramethyl-butyl)-amine]
18 | 56 |  | Cc1ccn2c(NC3CCCCC3)c(-c3cccc4ccccc34)nc2c1 [Example 16, Cyclohexyl-(7-methyl-2-naphthalen-1-yl-imidazo[1,2-a]pyridin-3-yl)-amine]
19 | 51 |  | Cc1ccn2c(NC(C)(C)CC(C)(C)C)c(-c3ccccc3F)nc2c1 [Example 17, [2-(2-Fluoro-phenyl)-7-methyl-imidazo[1,2-a]pyridin-3-yl]-(1,1,3,3-tetramethyl-butyl)-amine]
20 | 50 |  | COC(=O)CNc1c(C)nc2cc(C)ccn12 [Example 18, (2,7-Dimethyl-imidazo[1,2-a]pyridin-3-ylamino)-acetic acid methyl ester]
21 | 64 |  | Cc1cc(C)n2c(NC(C)(C)C)c(-c3cccc(O)c3)nc2c1 [Example 20, 3-(3-Tert-butylamino-5,7-dimethyl-imidazo[1,2-a]pyridin-2-yl)-phenol]
22 | 53 |  | Cc1ccn2c(NC3CCCCC3)c(-c3ccccc3F)nc2c1 [Example 21, Cyclohexyl-(2-(2-fluoro-phenyl)-7-methyl-imidazo[1,2-a]pyridin-3-yl]-amine]
23 | 68 |  | Cc1cc(C)n2c(NC(C)(C)C)c(C3CCCCC3)nc2c1 [Example 22, Tert-butyl-(2-cyclohexyl-5,7-dimethyl-imidazo[1,2-a]pyridin-3-yl)-amine]
24 | 74 |  | Cc1ccn2c(NC3CCCCC3)c(-c3cccnc3)nc2c1 [Example 23, Cyclohexyl-(7-methyl-2-pyridin-3-yl-imidazo[1,2-a]pyridin-3-yl)-amine]
25 | 59 |  | Cc1ccn2c(NC(C)(C)C)c(-c3cccc(O)c3)nc2c1 [Example 24, 3-(3-Tert-butylamino-7-methyl-imidazo[1,2-a]pyridin-2-yl)-phenol]
26 | 60 |  | Cc1cc(C)n2c(NC(C)(C)C)c(-c3ccco3)nc2c1 [Example 25, Tert-butyl-(2-furan-2-yl-5,7-dimethyl-imidazo[1,2-a]pyridin-3-yl)-amine]
27 | 62 |  | Cc1cc(C)n2c(NC3CCCCC3)c(-c3ccco3)nc2c1 [Example 26, Cyclohexyl-(2-furan-2-yl-5,7-dimethyl-imidazo[1,2-a]pyridin-3-yl)-amine]
28 | 62 |  | Cc1cc(C)n2c(NC3CCCCC3)c(-c3cccnc3)nc2c1 [Example 27, Cyclohexyl-(5,7-dimethyl-2-pyridin-3-yl-imidazo[1,2-a]pyridin-3-yl)-amine]
29 | 50 |  | Cc1ccn2c(NC(C)(C)CC(C)(C)C)c(-c3ccco3)nc2c1 [Example 28, (2-Furan-2-yl-7-methyl-imidazo[1,2-a]-pyridin-3-yl)-(1,1,3,3-tetramethyl-butyl)-amine]
30 | 69 |  | Cc1ccn2c(NC(C)(C)CC(C)(C)C)c(-c3ccncc3)nc2c1 [Example 29, (7-Methyl-2-pyridin-4-yl-imidazo[1,2-a]-pyridin-3-yl)-(1,1,3,3-tetramethyl-butyl)-amine]
31 | 56 |  | CCCCNc1c(C2CCCCC2)nc2cc(C)ccn12 [Example 30, Butyl-(2-cyclohexyl-7-methyl-imidazo[1,2-a]pyridin-3-yl)-amine]
32 | 60 |  | Cc1cc(C)n2c(NC(C)(C)CC(C)(C)C)c(-c3cccc(O)c3)nc2c1 [Example 31, 3-[5,7-Dimethyl-3-(1,1,3,3-tetramethyl-butylamino)-imidazo[1,2-a]pyridin-2-yl]-phenol]
33 | 59 |  | Cc1cc(C)n2c(Nc3c(C)cccc3C)c(-c3ccccc3C)nc2c1 [Example 32, (2,6-Dimethyl-phenyl)-(5,7-dimethyl-2-o-tolyl-imidazo[1,2-a]pyridin-3-yl)-amine]
34 | 67 |  | Cc1ccn2c(NC(C)(C)C)c(-c3cccc4ccccc34)nc2c1 [Example 33, Tert-butyl-(7-methyl-2-naphthalen-1-yl-imidazo[1,2-a]pyridin-3-yl)-amine]
